These results are taken from patent US12338256B2, “Aza-tetracyclic oxazepine compounds and uses thereof” (Genentech, Inc., priority 2022, dated 2025).

What all share (type): cell-based
Assay [1] deals with AsPC-1 (homozygous mutant KRAS G12D human pancreatic cell line). Put plainly: KRAS 3D-Cell Proliferation Assay, AsPC-1 (Example 503). The settings on record: Homo sapiens, ASPC1, 168 h, AsPC-1 3D culture, 7 days, CellTiter-Glo 3D; read-out: Prolif AsPC-1 3D ATP IC50. Here is the method:
Example 503: KRAS 3D-Cell Proliferation Assays. Cellular potencies of compounds are assessed by evaluating inhibition of proliferation in 3D cultures of homozygous mutant KRAS G12D human pancreatic cell lines (AsPC-1 and HPAC) as compared to a KRAS wild type human lung adenocarcinoma cell line (PC-9 and/or H1975). Cells are seeded into 384-well black round-bottom, ultra-low attachment assay plates in 50 uL cell growth medium (RPMI-1640 with 10% fetal bovine serum and 2 mM L-glutamine). After overnight incubation at 37° C. and 5% CO2, compounds solubilized in DMSO are added as dilution series to the wells in a total volume of 150 nL (0.3% DMSO final). The cells are incubated for 7 days at 37° C. and 5% CO2. Cell proliferation is quantitated by addition of 40 uL/well of CellTiter-GloÒ 3D (Promega), and the well contents are mixed 20× at high speed using liquid handling automation workstation (Bravo with 384-well head) and centrifuged at 1500 rpm for 2 minutes to eliminate bubbles. This reagent in combination with mechanical disruption releases the cellular ATP to promote activity in a luciferase-based enzyme/substrate chemiluminescent detection system. After a 30-minute incubation under ambient conditions with shaking and an additional 10 minutes without shaking, the luminescence is read on a plate reader (e.g., EnVision [PerkinElmer]). The results are normalized to percent inhibition based on the following control samples: DMSO (0% inhibition) and 1 μM staurosporine (100% inhibition). The normalized luminescence results are plotted against compound concentration, and the data are fit to a 4-parameter Hill equation to determine the IC50 values.
(Cellular ATP, detected with luciferase, serves as a proxy for viable cell number.)

For assay [2], the system named is HPAC (homozygous mutant KRAS G12D human pancreatic cell line). In words: KRAS 3D-Cell Proliferation Assay, HPAC (Example 503). The settings on record: Homo sapiens, HPAC, 168 h, HPAC 3D culture, 7 days, CellTiter-Glo 3D; read-out: Prolif HPAC 3D ATP IC50. The gist of the method:
(§1)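 Cells grown in 3D in ultra-low attachment plates (RPMI-1640 with 10% FBS and 2 mM L-glutamine) received compound dilution series after overnight attachment, at 0.3% DMSO final, for 7 days at 37° C. ATP luminescence (CellTiter-Glo 3D) normalized to DMSO and 1 μM staurosporine; IC50 from 4-parameter Hill fit.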

The subject of assay [3] is H1975 (KRAS wild type human lung adenocarcinoma cell line). In words: KRAS 3D-Cell Proliferation Assay, H1975 (Example 503). To be noted: Homo sapiens, NCI-H1975, 168 h, H1975 3D culture, 7 days, CellTiter-Glo 3D; read-out: Prolif H1975 3D ATP IC50. The method, boiled down: as §1

What is called IC50 is the midpoint of a concentration-inhibition curve. As for `Cc1c(F)c(N)cc(-c2nc3c4c(nc(OCC5(CN6CCOC[C@H]6C)CC5)nc4c2F)N2C[C@H]4CC[C@H](N4)[C@H]2[C@H](C)O3)c1C(F)(F)F` [Compound 129, 2-Fluoro-5-((5S,5aS,6S,9R)-1-fluoro-5-methyl-12-((1-(((R)-3-methylmorpholino)methyl)cyclopropyl)methoxy)-5a,6,7,8,9,10-hexahydro-5H-4-oxa-3,10a,11,13,14-pentaaza-6,9-methanonaphtho[1,8-ab]heptalen-2-yl)-3-methyl-4-(trifluoromethyl)aniline], the IC50 in assay [1] was determined as 1 nM; in assay [2], 1.1 nM; in assay [3], 1150 nM.

As for `Cc1c(F)c(N)cc(-c2nc3c4c(nc(OC[C@@H]5[C@@H]6CCN5CCO6)nc4c2F)N2C[C@H]4CC[C@H](N4)[C@H]2[C@H](C)O3)c1C(F)(F)F` [Compound 136, 5-((5S,5aS,6S,9R)-12-(((5S,8R)-4-Oxa-1-azabicyclo[3.2.1]octan-8-yl)methoxy)-1-fluoro-5-methyl-5a,6,7,8,9,10-hexahydro-5H-4-oxa-3,10a,11,13,14-pentaaza-6,9-methanonaphtho[1,8-ab]heptalen-2-yl)-2-fluoro-3-methyl-4-(trifluoromethyl)aniline], the results for the concentration for half-maximal inhibition (IC50) in assay [1], in assay [2] and in assay [3] were 200 nM, 67.5 nM and 12300 nM, respectively.

For `Cc1c(F)c(N)cc(-c2nc3c4c(nc(OCC56C[C@@H](F)CN5C[C@H](F)C6)nc4c2F)N2C[C@H]4CC[C@H](N4)[C@H]2[C@H](C)O3)c1C(F)(F)F` [Compound 140, 5-((5S,5aS,6S,9R)-12-(((2R,6R)-2,6-Difluorotetrahydro-1H-pyrrolizin-7a(5H)-yl)methoxy)-1-fluoro-5-methyl-5a,6,7,8,9,10-hexahydro-5H-4-oxa-3,10a,11,13,14-pentaaza-6,9-methanonaphtho[1,8-ab]heptalen-2-yl)-2-fluoro-3-methyl-4-(trifluoromethyl)aniline], the IC50 in assay [1] worked out at 4.4 nM; in assay [2] it was 2.53 nM; in assay [3], 2060 nM.

As to `Cc1c(F)c(N)cc(-c2nc3c4c(nc(OCC5(CN6CCOCC6)CC5)nc4c2F)N2C[C@H]4CC[C@H](N4)[C@H]2[C@H](C)O3)c1CC(F)F` [Compound 156, 4-(2,2-Difluoroethyl)-2-fluoro-5-((5S,5aS,6S,9R)-1-fluoro-5-methyl-12-((1-(morpholinomethyl)cyclopropyl)methoxy)-5a,6,7,8,9,10-hexahydro-5H-4-oxa-3,10a,11,13,14-pentaaza-6,9-methanonaphtho[1,8-ab]heptalen-2-yl)-3-methylaniline], the half-inhibitory concentration (IC50) in assay [1] stood at 9.4 nM; in assay [2], 2.94 nM; in assay [3], 776 nM.

On to `Cc1c(F)c(N)cc(-c2nc3c4c(nc(OC[C@H]5[C@@H](O)CCN5C)nc4c2F)N2C[C@H]4CC[C@H](N4)[C@H]2[C@H](C)O3)c1C(F)(F)F` [Compound 162, (2S,3S)-2-((((5S,5aS,6S,9R)-2-(5-Amino-4-fluoro-3-methyl-2-(trifluoromethyl)phenyl)-1-fluoro-5-methyl-5a,6,7,8,9,10-hexahydro-5H-4-oxa-3,10a,11,13,14-pentaaza-6,9-methanonaphtho[1,8-ab]heptalen-12-yl)oxy)methyl)-1-methylpyrrolidin-3-ol], for which the IC50 in assay [1] was 200 nM; in assay [2], 48.7 nM; in assay [3], 9450 nM.

For `Cc1c(F)c(N)cc(-c2nc3c4c(nc(OCC5(CN6CCO[C@H](C)C6)CC5)nc4c2F)N2C[C@H]4CC[C@H](N4)[C@H]2[C@H](C)O3)c1C(F)(F)F` [Compound 168, 2-Fluoro-5-((5S,5aS,6S,9R)-1-fluoro-5-methyl-12-((1-(((R)-2-methylmorpholino)methyl)cyclopropyl)methoxy)-5a,6,7,8,9,10-hexahydro-5H-4-oxa-3,10a,11,13,14-pentaaza-6,9-methanonaphtho[1,8-ab]heptalen-2-yl)-3-methyl-4-(trifluoromethyl)aniline], the IC50 in assay [1] came to 0.7 nM; in assay [2] it was 0.472 nM; in assay [3], 656 nM.

Regarding `Cc1c(F)c(N)cc(-c2nc3c4c(nc(OCC5(CN6C[C@H]7C[C@@H]6CO7)CC5)nc4c2F)N2C[C@H]4CC[C@H](N4)[C@H]2[C@H](C)O3)c1C(F)(F)F` [Compound 170, 5-((5S,5aS,6S,9R)-12-((1-(((1R,4R)-2-Oxa-5-azabicyclo[2.2.1]heptan-5-yl)methyl)cyclopropyl)methoxy)-1-fluoro-5-methyl-5a,6,7,8,9,10-hexahydro-5H-4-oxa-3,10a,11,13,14-pentaaza-6,9-methanonaphtho[1,8-ab]heptalene-2-yl)-2-fluoro-3-methyl-4-(trifluoromethyl)aniline], the IC50 in assay [1] worked out at 0.8 nM; in assay [2], 0.92 nM; in assay [3] it was 506 nM.

For `Cc1c(F)c(N)cc(-c2nc3c4c(nc(OCC5(CN6CC7(COC7)C6)CC5)nc4c2F)N2C[C@H]4CC[C@H](N4)[C@H]2[C@H](C)O3)c1C(F)(F)F` [Compound 174, 5-((5S,5aS,6S,9R)-12-((1-((2-Oxa-6-azaspiro[3.3]heptan-6-yl)methyl)cyclopropyl)methoxy)-1-fluoro-5-methyl-5a,6,7,8,9,10-hexahydro-5H-4-oxa-3,10a,11,13,14-pentaaza[6,9]methanonaphtho[1,8-ab]heptalene-2-yl)-2-fluoro-3-methyl-4-(trifluoromethyl)aniline], the half-inhibitory concentration (IC50) in assay [1] came to 1.3 nM; in assay [2], 3.86 nM; in assay [3], 227 nM.

As to `Cc1cc2[nH]ncc2c(-c2nc3c4c(nc(OC[C@@]56CCCN5C[C@H](F)C6)nc4c2F)N2C[C@H]4CC[C@H](N4)[C@H]2[C@H](C)O3)c1Cl` [Compound 176, (5S,5aS,6S,9R)-2-(5-Chloro-6-methyl-1H-indazol-4-yl)-1-fluoro-12-(((2R,7aS)-2-fluorotetrahydro-1H-pyrrolizin-7a(5H)-yl)methoxy)-5-methyl-5a,6,7,8,9,10-hexahydro-5H-4-oxa-3,10a,11,13,14-pentaaza-6,9-methanonaphtho[1,8-ab]heptalene], the IC50 in assay [1] came to 200 nM; in assay [2], 168 nM; in assay [3], 15200 nM.

As for `Cc1cc(N)c(F)c(-c2nc3c4c(nc(OC[C@@]56CCCN5C[C@H](F)C6)nc4c2F)N2C[C@H]4CC[C@H](N4)[C@H]2[C@H](C)O3)c1CC(F)(F)F` [Compound 182, 2-Fluoro-3-((5S,5aS,6S,9R)-1-fluoro-12-(((2R,7aS)-2-fluorotetrahydro-1H-pyrrolizin-7°(5H)-yl)methoxy)-5-methyl-5°,6,7,8,9,10-hexahydro-5H-4-oxa-3,10°,11,13,14-pentaaza-6,9-methanonaphtho[1,8-ab]heptalen-2-yl)-5-methyl-4-(2,2,2-trifluoroethyl)aniline], the IC50 in assay [1] is 8.3 nM; in assay [2], 4.12 nM; in assay [3], 1910 nM.

`C[C@@H]1Oc2nc(-c3cc(N)c(F)c(F)c3CC(F)(F)F)c(F)c3nc(OC[C@@]45CCCN4C[C@H](F)C5)nc(c23)N2C[C@H]3CC[C@H](N3)[C@@H]12` [Compound 183, 2,3-Difluoro-5-((5S,5aS,6S,9R)-1-fluoro-12-(((2R,7aS)-2-fluorotetrahydro-1H-pyrrolizin-7a(5H)-yl)methoxy)-5-methyl-5a,6,7,8,9,10-hexahydro-5H-4-oxa-3,10a,11,13,14-pentaaza-6,9-methanonaphtho[1,8-ab]heptalene-2-yl)-4-(2,2,2-trifluoroethyl)aniline]: the IC50 in assay [1] is 4.2 nM; in assay [2], 2.32 nM; in assay [3], 852 nM.
